# Test results as given in article PMC8402547, “In Vitro and In Vivo Analysis of Ochratoxin A-Derived Glucuronides and Mercapturic Acids as Biomarkers of Exposure” (Toxins, 2021).
# Columns and labels:
# [1] = Direct LC–MS/MS analysis of OTA metabolites in urine of OTA-treated rats; assay type: in vivo, male F344/N rats; conditions: OTA up to 2 mg/kg bw, negative ionization mode
# Procedure: Archived urine samples from previous repeated dose oral toxicity studies on OTA in male F344/N rats were used. The studies were performed according to national animal welfare regulations after authorization by the local authorities (Regierung von Unterfranken, AZ 621-2531.01-9/98 and AZ 54-2531.01-59/05).
# (§1) 14-day study: Male F344 rats (170–190 g) were purchased from Charles-River Laboratories, Sulzfeld, Germany. Animals had free access to water and standard diet (Altromin) and were kept under standard conditions (12 h day/night cycle, temperature 21–23 °C, humidity 45–55%). Rats were transferred to metabolic cages (Tecniplast Metabolic Cage—Rats Over 300 g; Tecniplast, Italy) for collection of urine 3 days prior to dosing. Animals were administered OTA dissolved in corn oil by oral gavage at 0, 0.25, 0.5, 1.0 and 2.0 mg/kg bw for 2 weeks (5 days per week). Urine was collected every 12 h on day 1 of treatment and every 24 h thereafter on ice, aliquoted and stored at −20 °C until further analysis.
# (§2) 90-day study: Male F344/N rats (6–7 weeks old) were purchased from Harlan-Winkelmann, Borchen, Germany. Animals were housed in groups of 5 in Macrolon type-4 cages and allowed free access to pelleted standard rat maintenance diet (SSNIFF, Soest, Germany) and tap water. After a week of acclimatization, rats (n = 5/dose) were exposed to OTA dissolved in corn oil by oral gavage at doses of 0, 21, 70 or 210 µg/kg bw for 2, 4 or 13 weeks (5 days per week). For urine collection, animals were transferred into metabolic cages (Tecniplast Metabolic Cage—Rats Over 300 g; Tecniplast, Italy) 48 h prior to necropsy and fasted for 20 h but allowed free access to tap water. Urine was collected for 24 h on ice, aliquoted and stored at −20 °C until further analysis.
# Urine samples were diluted with acetonitrile (2:1), vortexed and cleared via centrifugation (4 °C, 15 min., 2000× g) to precipitate proteins. Of the resulting supernatant, 10 µL were injected into the LC–MS system and analyzed using the method described below.
# (§3) LC–MS/MS analyses were performed on an Agilent 1100 series LC coupled to an API 2000/Q-Trap mass spectrometer (Applied Biosystems/MDS Sciex, Concord, Canada). Samples were injected into the LC–MS/MS system through an Agilent 1100 series autosampler. Separations were carried out on a ReproSil-Pur C18 AQ column (2 mm × 150 mm, 5 µm; Dr. Maisch; Ammerbuch, Germany). Gradient elution of OTA-derived metabolites was carried out with water + 0.1% formic acid (solvent A) and acetonitrile (solvent B). Initially, solvent A was held isocratic for 5 min at 100%, followed by a linear gradient to 95% B in 5 min. These conditions were held for further 5 min. Within 1 min, the gradient decreased linearly to 0% B and remained at initial conditions until the end of analysis (30 min). A flow rate of 0.2 mL/min was used. For each run, 10 µL of the respective sample were injected by the autosampler.
# (§4) The API 2000/Q-Trap mass spectrometer was operated with a Turbo Ion Spray source in negative ion mode with a voltage of −4000 V. Spectral data were recorded with N2 as the heater gas at 450 °C and as the collision gas (CAD = −2) in multiple reaction monitoring mode (MRM).
# In addition to MRM, constant neutral loss of 129 amu in the negative ion mode based on the characteristic fragmentation pattern of mercapturic acids was used to screen for N-acetyl-cysteine conjugates of OTA. Furthermore, constant neutral loss of 176 amu in positive ion mode based on the fragmentation pattern of glucuronic acid conjugates was used to screen for OTA glucuronides.
# [2] = 14-day rat study: 24 h urinary excretion of OTA and OTA-glucuronides, LC–MS/MS with and without β-glucuronidase hydrolysis; assay type: in vivo, male F344/N rats; conditions: for Urinary excretion / Urinary excretion, fraction of the administered dose: 2 mg OTA/kg bw oral, 5 d/week; for Urinary excretion, fraction of the administered dose: 24 h urine
# Procedure: as §1
# (§5) Duplicate analysis of OTA in urine samples with and without enzymatic hydrolysis allowed for indirect measurement of glucuronides, whereby an increase in the concentration of OTA in the samples incubated with enzyme compared to those without enzymatic treatment reflected the hydrolyzed glucuronides. Aliquots of rat urine (125 µL) were mixed with 0.1 M sodium acetate (104 µL; pH = 5). For analysis of the concentration of OTA without enzymatic hydrolysis, an aliquot (30 µL) of this solution was removed and mixed with 7 µL acetonitrile. The remaining solution (199 µL) was incubated with β-glucuronidase (1.65 µL; <100,000 units/mL) at 37 °C for 1 h. Hydrolysis was terminated by addition of ice-cold acetonitrile (50 µL) and centrifugation (15 min., 4 °C, 20,000× g). To 98 µL supernatant, 2 µL isotopically labeled ^13C20-OTA in acetonitrile (14-day study: 5 µg/mL; 90-day study: 1 µg/mL) was added as an internal standard. For analysis, 10 µL of each sample were injected into the LC–MS system and analyzed using the method described below. A calibration curve was prepared from solutions of OTA and the isotopically labeled ^13C20-OTA internal standard in acetonitrile and subsequent dilution with urine of a control animal.
# as §3, §4
# [3] = 90-day rat study: 24 h urinary excretion of OTA and OTA-glucuronides, LC–MS/MS with and without β-glucuronidase hydrolysis; assay type: in vivo, male F344/N rats; conditions: for Urinary excretion, fraction of the administered dose / Urinary excretion: 5 days/week; for Urinary excretion, fraction of the administered dose: 24 h urine
# Procedure: as §2, §5, §3, §4
# [4] = human urine samples; cited from earlier work
# [5] = 4 weeks treatment, OTA 210 μg/kg bw per day oral, n = 1
smiles,measurement,setting,value
"C[C@@H]1Cc2c(Cl)cc(C(=O)N[C@@H](Cc3ccccc3)C(=O)O)c(O)c2C(=O)O1 [OTA, Ochratoxin A]",Detection in urine of OTA-treated rats by direct LC–MS/MS (MRM),[1],consistently found
same,Urinary excretion,"[2]; animal 2, day 3 of treatment",15.3 nmol/24 h
same,"Urinary excretion, fraction of the administered dose","[2]; animal 2, day 3 of treatment",1.8%
same,Urinary excretion,"[2]; animal 2, day 5 of treatment",40.3 nmol/24 h
same,"Urinary excretion, fraction of the administered dose","[2]; animal 2, day 5 of treatment",4.7%
same,Urinary excretion,"[2]; animal 2, day 7 of treatment",35.4 nmol/24 h
same,"Urinary excretion, fraction of the administered dose","[2]; animal 2, day 7 of treatment",4.1%
same,Urinary excretion,"[2]; animal 2, day 9 of treatment",32.9 nmol/24 h
same,"Urinary excretion, fraction of the administered dose","[2]; animal 2, day 9 of treatment",3.7%
same,Urinary excretion,"[2]; animal 2, day 11 of treatment",40.9 nmol/24 h
same,"Urinary excretion, fraction of the administered dose","[2]; animal 2, day 11 of treatment",4.6%
same,Urinary excretion,"[2]; animal 2, day 13 of treatment",21.0 nmol/24 h
same,"Urinary excretion, fraction of the administered dose","[2]; animal 2, day 13 of treatment",2.2%
same,Urinary excretion,"[2]; animal 3, day 3 of treatment",4.4 nmol/24 h
same,"Urinary excretion, fraction of the administered dose","[2]; animal 3, day 3 of treatment",0.5%
same,Urinary excretion,"[2]; animal 3, day 5 of treatment",30.9 nmol/24 h
same,"Urinary excretion, fraction of the administered dose","[2]; animal 3, day 5 of treatment",3.5%
same,Urinary excretion,"[2]; animal 3, day 7 of treatment",62.4 nmol/24 h
same,"Urinary excretion, fraction of the administered dose","[2]; animal 3, day 7 of treatment",6.9%
same,Urinary excretion,"[2]; animal 3, day 9 of treatment",17.8 nmol/24 h
same,"Urinary excretion, fraction of the administered dose","[2]; animal 3, day 9 of treatment",2.0%
same,Urinary excretion,"[2]; animal 3, day 11 of treatment",33.6 nmol/24 h
same,"Urinary excretion, fraction of the administered dose","[2]; animal 3, day 11 of treatment",3.7%
same,Urinary excretion,"[2]; animal 3, day 13 of treatment",48.1 nmol/24 h
same,"Urinary excretion, fraction of the administered dose","[2]; animal 3, day 13 of treatment",5.3%
same,"24 h urinary excretion, % of the daily administered dose","[2]; range over the course of the study, OTA 2 mg/kg bw for 2 weeks (5 days/week)",0.5–6.9%
same,"Urinary excretion, fraction of the administered dose","[3]; 2 weeks treatment, OTA 21 μg/kg bw per day oral",1.9%
same,Urinary excretion,"[3]; 2 weeks treatment, OTA 21 μg/kg bw per day oral, mean ± SD",0.22 ± 0.03 nmol/24 h
same,"Urinary excretion, fraction of the administered dose","[3]; 2 weeks treatment, OTA 70 μg/kg bw per day oral",0.8%
same,Urinary excretion,"[3]; 2 weeks treatment, OTA 70 μg/kg bw per day oral, mean ± SD",0.32 ± 0.12 nmol/24 h
same,"Urinary excretion, fraction of the administered dose","[3]; 2 weeks treatment, OTA 210 μg/kg bw per day oral",1.2%
same,Urinary excretion,"[3]; 2 weeks treatment, OTA 210 μg/kg bw per day oral, mean ± SD",1.35 ± 0.36 nmol/24 h
same,"Urinary excretion, fraction of the administered dose","[3]; 4 weeks treatment, OTA 70 μg/kg bw per day oral",0.9%
same,Urinary excretion,"[3]; 4 weeks treatment, OTA 70 μg/kg bw per day oral, mean ± SD",0.51 ± 0.09 nmol/24 h
same,"Urinary excretion, fraction of the administered dose",[3]; [5],4.6%
same,Urinary excretion,[3]; [5],5.86 nmol/24 h
same,"Urinary excretion, fraction of the administered dose","[3]; 13 weeks treatment, OTA 21 μg/kg bw per day oral",1.1%
same,Urinary excretion,"[3]; 13 weeks treatment, OTA 21 μg/kg bw per day oral, mean ± SD",0.18 ± 0.07 nmol/24 h
same,"Urinary excretion, fraction of the administered dose","[3]; 13 weeks treatment, OTA 70 μg/kg bw per day oral",1.9%
same,Urinary excretion,"[3]; 13 weeks treatment, OTA 70 μg/kg bw per day oral, mean ± SD",0.97 ± 0.36 nmol/24 h
same,"Urinary excretion, fraction of the administered dose","[3]; 13 weeks treatment, OTA 210 μg/kg bw per day oral",2.5%
same,Urinary excretion,"[3]; 13 weeks treatment, OTA 210 μg/kg bw per day oral, mean ± SD",3.88 ± 1.50 nmol/24 h
same,Fraction of the administered dose excreted in urine,"[3]; range over 90-day study, OTA 21, 70 and 210 µg/kg (5 days/week)",0.8 to 4.6%
same,Concentration in human urine following enzymatic hydrolysis as compared to without hydrolysis,[4],up to 6 fold
